The record followed here is ChEMBL document CHEMBL1146503, “Effects of natural flavones and flavonols on the kinase activity of Cdk5” (J Nat Prod, 2004).

A value given as a limit tells only on which side of the number the result lay.

Sequence of Cyclin-dependent kinase 5 (Q03114 whole entry): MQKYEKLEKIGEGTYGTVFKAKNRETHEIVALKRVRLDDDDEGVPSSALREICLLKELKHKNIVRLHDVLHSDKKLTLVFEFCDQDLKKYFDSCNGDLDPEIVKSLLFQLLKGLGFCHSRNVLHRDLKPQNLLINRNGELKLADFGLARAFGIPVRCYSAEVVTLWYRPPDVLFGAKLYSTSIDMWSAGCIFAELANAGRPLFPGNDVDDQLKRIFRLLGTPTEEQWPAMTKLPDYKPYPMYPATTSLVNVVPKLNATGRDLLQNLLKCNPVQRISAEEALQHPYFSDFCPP

The assay has as its target Cyclin-dependent kinase 5 (Rattus norvegicus, UniProt Q03114). Description: Inhibition of rat fetal brain CDK5 assessed as phosphorylated histone H1 levels by immuno-precipitation. The format is tissue-based.
A word on the EC50: it is the midpoint of the concentration-response curve. With `O=c1c(O)c(-c2ccc(O)cc2)oc2cc(O)cc(O)c12` [KAEMPFEROL], the EC50 was determined as 66.1 µM.
Turning to `COc1cc2oc(-c3ccccc3)cc(=O)c2c(OC)c1O`, the EC50 is > 250 µM.
On to `COc1c(O)cc2oc(-c3ccc(O)c(O)c3)cc(=O)c2c1O` [EUPAFOLIN], for which the concentration for a half-maximal effect (EC50) stood at 40 µM.
Then `O=c1c(O)c(-c2cc(O)c(O)c(O)c2)oc2cc(O)cc(O)c12` [MYRICETIN], with 71.1 µM; and `O=c1cc(-c2ccc(O)cc2)oc2cc(O)cc(O)c12` [APIGENIN], with > 250 µM.
`COc1cc(-c2oc3c(OC)c(OC)c(OC)c(O)c3c(=O)c2OC)ccc1O`: the 50% effective concentration (EC50) was > 25 µM.
As for `O=c1cc(-c2ccc(O)c(O)c2)oc2cc(O)cc(O)c12` [LUTEOLIN], the figure is > 250 µM; as for `COc1c(O)cc2oc(-c3ccc(O)cc3)cc(=O)c2c1O` [HISPIDULIN], 19.1 µM.
